# Reference: US8735322B2, “Herbicides” (Syngenta Limited, priority 2008, dated 2014)
# Tests used:
# Format in all cases: in vivo
# Setaria faberi (SETFA) [1] = assay: Example B post-emergence herbicidal activity, glasshouse pot test; conditions: 312 h, rate 1000 g/ha, evaluated after 13 days, read-out: herbicidal damage SETFA (100=total damage to plant; 0=no damage to plant)
# Description: (§1) Seeds of a variety of test species were sown in standard soil in pots. After cultivation for one day (pre-emergence) or after 8 days cultivation (post-emergence) under controlled conditions in a glasshouse (at 24/16° C., day/night; 14 hours light; 65% humidity), the plants were sprayed with an aqueous spray solution derived from the formulation of the technical active ingredient in acetone/water (50:50) solution containing 0.5% Tween 20 (polyoxyethelyene sorbitan monolaurate, CAS RN 9005-64-5). The test plants were then grown in a glasshouse under controlled conditions in a glasshouse (at 24/16° C., day/night; 14 hours light; 65% humidity) and watered twice daily. After 13 days for pre and post-emergence, the test was evaluated (100=total damage to plant; 0=no damage to plant). Alopecurus myosuroides (ALOMY), Avena fatua (AVEFA), Setaria faberi (SETFA), Echinochloa crus-galli (ECHCG), Solanum nigrum (SOLNI) and Amaranthus retroflexus (AMARE) Post-Emergence Activity
# [2] = system: Alopecurus myosuroides (ALOMY); assay: as above; conditions: 312 h, rate 1000 g/ha, evaluated after 13 days, read-out: herbicidal damage ALOMY (100=total damage to plant; 0=no damage to plant)
# Description: as §1
# [3] = system: Echinochloa crus-galli (ECHCG); assay: as above; conditions: 312 h, rate 1000 g/ha, evaluated after 13 days, read-out: herbicidal damage ECHCG (100=total damage to plant; 0=no damage to plant)
# Description: as §1
# [4] = system: Amaranthus retroflexus (AMARE); assay: as above; conditions: 312 h, rate 1000 g/ha, evaluated after 13 days, read-out: herbicidal damage AMARE (100=total damage to plant; 0=no damage to plant)
# Description: as §1
# Avena fatua (AVEFA) [5] = assay: as above; conditions: 312 h, rate 1000 g/ha, evaluated after 13 days, read-out: herbicidal damage AVEFA (100=total damage to plant; 0=no damage to plant)
# Description: as §1
# Solanum nigrum (SOLNI) [6] = assay: as above; conditions: 312 h, rate 1000 g/ha, evaluated after 13 days, read-out: herbicidal damage SOLNI (100=total damage to plant; 0=no damage to plant)
# Description: as §1
# Setaria faberi (SETFA) [7] = assay: Example B pre-emergence herbicidal activity, glasshouse pot test; conditions: 312 h, rate 1000 g/ha, evaluated after 13 days, read-out: herbicidal damage SETFA (100=total damage to plant; 0=no damage to plant)
# Description: as §1, with “Pre-Emergence” for “Post-Emergence”
# [8] = system: Alopecurus myosuroides (ALOMY); assay: as above; conditions: 312 h, rate 1000 g/ha, evaluated after 13 days, read-out: herbicidal damage ALOMY (100=total damage to plant; 0=no damage to plant)
# Description: as §1, with “Pre-Emergence” for “Post-Emergence”
# [9] = system: Echinochloa crus-galli (ECHCG); assay: as above; conditions: 312 h, rate 1000 g/ha, evaluated after 13 days, read-out: herbicidal damage ECHCG (100=total damage to plant; 0=no damage to plant)
# Description: as §1, with “Pre-Emergence” for “Post-Emergence”
# [10] = system: Amaranthus retroflexus (AMARE); assay: as above; conditions: 312 h, rate 1000 g/ha, evaluated after 13 days, read-out: herbicidal damage AMARE (100=total damage to plant; 0=no damage to plant)
# Description: as §1, with “Pre-Emergence” for “Post-Emergence”
# Avena fatua (AVEFA) [11] = assay: as above; conditions: 312 h, rate 1000 g/ha, evaluated after 13 days, read-out: herbicidal damage AVEFA (100=total damage to plant; 0=no damage to plant)
# Description: as §1, with “Pre-Emergence” for “Post-Emergence”
# Solanum nigrum (SOLNI) [12] = assay: as above; conditions: 312 h, rate 1000 g/ha, evaluated after 13 days, read-out: herbicidal damage SOLNI (100=total damage to plant; 0=no damage to plant)
# Description: as §1, with “Pre-Emergence” for “Post-Emergence”
Compound,pest or weed control at 1000 g/ha (Setaria faberi (SETFA) [1]),pest or weed control at 1000 g/ha [2],pest or weed control at 1000 g/ha [3],pest or weed control at 1000 g/ha [4],pest or weed control at 1000 g/ha (Avena fatua (AVEFA) [5]),pest or weed control at 1000 g/ha (Solanum nigrum (SOLNI) [6]),pest or weed control at 1000 g/ha (Setaria faberi (SETFA) [7]),pest or weed control at 1000 g/ha [8],pest or weed control at 1000 g/ha [9],pest or weed control at 1000 g/ha [10],pest or weed control at 1000 g/ha (Avena fatua (AVEFA) [11]),pest or weed control at 1000 g/ha (Solanum nigrum (SOLNI) [12])
Cc1ccc(-c2ccc3c(c2)OCO3)cc1C1=C(O)CC(CC2CCOCC2)CC1=O (stereo not drawn) [Compound A-53],60%,50%,70%,0%,50%,0%,0%,0%,0%,0%,0%,0%
Cc1ccc(-c2ccc3c(c2)OCCO3)cc1C1=C(O)CC(CC2CCOCC2)CC1=O (stereo not drawn) [Compound A-54],0%,0%,70%,0%,0%,0%,0%,60%,0%,0%,10%,0%
"Cc1ccc(-c2ccc(Cl)cc2)cc1C1=C(O)CC(CC2OCCCO2)CC1=O (stereo not drawn) [Compound A-55, 2-(4′-Chloro-4-methylbiphenyl-3-yl)-5-[1,3]dioxan-2-ylmethylcyclohexane-1,3-dione]",100%,90%,100%,0%,90%,0%,60%,0%,60%,0%,20%,0%
Cc1ccc(-c2ccc(Cl)cc2)cc1C1=C(O)CC(CC2OCC(C)(C)CO2)CC1=O (stereo not drawn) [Compound A-56],90%,80%,100%,0%,0%,0%,70%,20%,0%,0%,0%,0%
CCC1(CC)COC(CC2CC(=O)C(c3cc(-c4ccc(Cl)cc4)ccc3C)=C(O)C2)OC1 (stereo not drawn) [Compound A-57],90%,70%,90%,0%,20%,0%,90%,40%,0%,0%,0%,0%
Cc1ccc(-c2ccc(Cl)cc2)cc1C1=C(O)CC(CC2OCC3(CCOCC3)O2)CC1=O (stereo not drawn) [Compound A-58],90%,60%,90%,0%,40%,0%,30%,20%,60%,0%,0%,0%
Cc1ccc(-c2ccc(Cl)cc2)cc1C1=C(O)CC(CC2OCC(C3CCOCC3)O2)CC1=O (stereo not drawn) [Compound A-59],90%,70%,90%,0%,20%,0%,60%,20%,0%,0%,0%,0%
Cc1ccc(-c2ccc(Cl)cc2)cc1C1=C(O)CC(CC2OCC(CC3CCOCC3)O2)CC1=O (stereo not drawn) [Compound A-60],90%,60%,90%,0%,10%,0%,30%,0%,30%,0%,0%,0%
Cc1ccc(-c2ccc(Cl)cc2)cc1C1=C(O)CC(CC2O[C@H]3COC[C@H]3O2)CC1=O (stereo partly drawn) [Compound A-61],100%,90%,100%,0%,80%,0%,30%,0%,20%,0%,0%,0%
Cc1ccc(-c2ccc(Cl)cc2)cc1C1=C(O)CC(CC2OCCCCO2)CC1=O (stereo not drawn) [Compound A-62],100%,90%,100%,0%,80%,0%,60%,20%,50%,0%,0%,0%
COCC1COC(CC2CC(=O)C(c3cc(-c4ccc(Cl)cc4)ccc3C)=C(O)C2)O1 (stereo not drawn) [Compound A-63],100%,90%,100%,0%,90%,0%,70%,0%,20%,20%,0%,0%
Cc1ccc(-c2ccc(Cl)cc2)cc1C1=C(O)CC(CC2OCC(C)CO2)CC1=O (stereo not drawn) [Compound A-64],100%,80%,100%,0%,80%,0%,50%,0%,50%,0%,0%,0%
Cc1ccc(-c2ccc(Cl)cc2)cc1C1=C(O)CC(CC2OCC3(CC3)CO2)CC1=O (stereo not drawn) [Compound A-65],70%,40%,70%,90%,20%,60%,60%,20%,70%,30%,0%,20%
